Laboratory results published in article PMC9928118, “Funneling modulatory peptide design with generative models: Discovery and characterization of disruptors of calcineurin protein-protein interactions” (PLOS Computational Biology, 2023).

Experiments:
GST-tagged Cn [1] = test: PEPperPRINT peptide microarray binding assay with GST-tagged Cn
Summary of the method: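 Qualitative binding: peptides printed on a PEPperPRINT microarray were incubated overnight at 4 °C with 1 mg/ml GST-tagged Cn, then detected with Alexa-Fluor 647 anti-GST antibody. Log fluorescence was baseline-corrected, averaged over duplicate spots, Z-normalized and averaged across five repeats.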

GST-tagged Cn [2] = test: as above; conditions: max over the duplicate spots (Location on chip)
[3] = GST-tagged Cn, mean over the duplicate spots (Location on chip)
[4] = GST-tagged Cn, max over the chip locations
[5] = GST-tagged Cn, mean over the chip locations
[6] = GST-tagged Cn, max over the chip spots listed under Location on chip
[7] = GST-tagged Cn, mean over the chip spots listed under Location on chip
[8] = max over the chip locations listed for the peptide (two spots)
[9] = mean over the chip locations listed for the peptide (two spots)
[10] = GST-tagged Cn, max over the spots on the chip (two locations)
[11] = GST-tagged Cn, mean over the spots on the chip (two locations)
[12] = GST-tagged Cn, max over the spots named in Location on chip
[13] = GST-tagged Cn, mean over the spots named in Location on chip
[14] = max over the spots listed under Location on chip
[15] = mean over the spots listed under Location on chip

Sequence	Chip Fluorescence (mean) (GST-tagged Cn [1]; [3])	Chip Fluorescence (max) (GST-tagged Cn [2])	further results
TFWANPQITITLAELD [SeqRBMlowT_7358]	0.7622	2.261	
KNARGPLIIIHPMEED [SeqRBM_1913]	1.192	2.283	
ADETQPGIVVHVCELP [SeqRBMlowT_352]	0.6468	2.166	
RNPGTFLLTLRGHKKQ [SeqRBMlowT_5813]	1.08	2.447	
LMDLCPVVRLQIISAL [SeqRBM_7616]	0.2546	2.223	
LLDNVPAVHVHDMGGH [SeqRBM_9035]	0.6608	1.904	
RFYINPFVQFSDGGNN [SeqRBM_1053]	-0.5027	2.558	
RQPGQALLELRGHSAS [SeqRBMlowT_7735]	0.19	2.013	
TFMMNPQYRLYKSVSP [SeqRBM_6553]	0.3935	2.027	
YTQIFPKCAMTIIKRK [Seqrandom_9966]	0.5369	2.341	
KAYMCPYMQFIEGGRR [SeqSFB3_Ictalurus_punctatus]	1.763	2.501	
TFWMNPQYRITLEEPD [SeqRBMlowT_2265]	0.1767	2.207	
RAYKNPFMQFDLDSSL [SeqRBM_8076]	1.346	2.512	
HIIIVWAVSEVKYVQL [Seqrandom_9992]	0.6897	1.914	
TFWTNPQFVVSLPEED [SeqRBMlowT_8537]	-0.2871	2.16	
ADEATPSIVVHVCELP [SeqRBMlowT_118]	0.5506	2.544	
KKMSPPCITITPAPGA [SeqRBMlowT_7625]	-0.7518	2.125	
LRDEVPEVRLNIISDL [SeqRBM_180]	-0.2367	2.2011	
GTDLRQQTAAQPNDGA [Seqshuffled_4362]	0.6141	2.523	
KSKRIPKLSVVSPVHH [SeqRBM_6422]	0.728	2.115	
TFWSNPQFRLKLEDPD [SeqRBMlowT_6883]	1.226	2.274	
GGPGTPSRQGQTAAPS [SeqRBM_5534]	-0.2851	2.523	
TFWTNPQFRIKLEDED [SeqRBMlowT_645]	1.091	2.265	
TFWTNPQFRITLEEPD [SeqRBMlowT_11]	0.7438	2.387	
ADEAVPLIDIAMAEYP [SeqRBM_3950]	0.7456	2.42	
QWSLGVGIVITVTETM [SeqRBM_1755]	0.7956	2.2853	

Sequence	Chip Fluorescence (mean) (GST-tagged Cn [1]; [3])	Chip Fluorescence (max) (GST-tagged Cn [2])	further results
HCRFEWPFGFSMIRYP [Seqrandom_9994]	-1.666	2.458	
ESRYRRFRQFQAPKVD [Seqshuffled_9523]	1.1019	2.434	
PGQMQPSINVMAEKNP [SeqRBM_977]	-0.5544	1.973	
RTYINPFMLFEDMGSR [SeqRBM_7588]	0.1039	2.523	
SFWTNPQFIITLQEED [SeqRBMlowT_7307]	0.8738	2.363	
NNLAINDVTAGDRGCY [SeqRBM_1373]	1.818	2.1787	
SSMAQPAINIDFAPTN [SeqRBMlowT_2450]	-0.1624	2.328	
TFWTNPQFRVHLEDED [SeqRBMlowT_4265]	1.067	1.93	
PSLYINALGIESFTLS [SeqRBMlowT_6967]	0.7051	2.037	
PSLYENALGMESFTIS [SeqRBMlowT_2807]	-0.3855	2.474	
TFWTNPQYRITLEDPD [SeqRBMlowT_604]	-0.2036	2.534	
DCIGFCSVPVMYAPNH [Seqrandom_1239]	-0.3019	2.175	
TFWTNPQYRIKLEEVD [SeqRBMlowT_627]	-1.639	1.99	
TFWTNPQFRVTVTEPD [SeqRBMlowT_4663]			Chip Fluorescence (max) (GST-tagged Cn [1]; [4]): 0.1471; Chip Fluorescence (mean) (GST-tagged Cn [1]; [5]): -0.7824
QASKNSNMQRSFHVNA [Seqshuffled_9426]			Chip Fluorescence (max) (GST-tagged Cn [1]; [6]): 0.8318; Chip Fluorescence (mean) (GST-tagged Cn [1]; [7]): -0.05808
VDIATNDLISELCNLC [Seqrandom_9952]			Chip Fluorescence (max) (GST-tagged Cn [1]; [8]): 4.084; Chip Fluorescence (mean) (GST-tagged Cn [1]; [9]): 0.2161
KQMAPPAINIDFAPTN [SeqRBMlowT_1821]			Chip Fluorescence (max) (GST-tagged Cn [1]; [4]): -0.4908; Chip Fluorescence (mean) (GST-tagged Cn [1]; [5]): -3.72
KKMSPPCINIDPAPTN [SeqRBMlowT_1811]			Chip Fluorescence (max) (GST-tagged Cn [1]; [10]): 0.9886; Chip Fluorescence (mean) (GST-tagged Cn [1]; [11]): -0.8988
GVQANPQFTIKAMMTN [SeqRBM_9281]			Chip Fluorescence (max) (GST-tagged Cn [1]; [4]): -0.1422; Chip Fluorescence (mean) (GST-tagged Cn [1]; [5]): -2.366
SSSSLPTFQFSTPATL [SeqRBM_7341]			Chip Fluorescence (max) (GST-tagged Cn [1]; [10]): 1.265; Chip Fluorescence (mean) (GST-tagged Cn [1]; [11]): -1.213
TFWTNPQFRIKLEDVD [SeqRBMlowT_2]			Chip Fluorescence (max) (GST-tagged Cn [1]; [6]): 0.5307; Chip Fluorescence (mean) (GST-tagged Cn [1]; [7]): -0.7635
GGPGTPGRQGQPLAPS [SeqRBMlowT_7795]			Chip Fluorescence (max) (GST-tagged Cn [1]; [12]): 1.388; Chip Fluorescence (mean) (GST-tagged Cn [1]; [13]): -0.6767
RFRTELSFGFTGFGTD [Seqshuffled_9528]			Chip Fluorescence (max) (GST-tagged Cn [1]; [6]): 0.42; Chip Fluorescence (mean) (GST-tagged Cn [1]; [7]): -0.6398
EGKMDPELYISTVEAQ [SeqRBM_3392]			Chip Fluorescence (max) (GST-tagged Cn [1]; [8]): 3.895; Chip Fluorescence (mean) (GST-tagged Cn [1]; [9]): 0.1296
STSSLPTFSFSSPVPT [SeqRBMlowT_3904]			Chip Fluorescence (max) (GST-tagged Cn [1]; [6]): 0.9816; Chip Fluorescence (mean) (GST-tagged Cn [1]; [7]): -1.275
LSDNRPNVRMEAPMVQ [SeqRBM_9917]			Chip Fluorescence (max) (GST-tagged Cn [1]; [4]): 0.09814; Chip Fluorescence (mean) (GST-tagged Cn [1]; [5]): -0.3526

Sequence	Chip Fluorescence (mean) (GST-tagged Cn [1]; [3])	Chip Fluorescence (max) (GST-tagged Cn [2])	further results
RNPESPSLFLEGHLSR [SeqRBMlowT_8778]			Chip Fluorescence (max) (GST-tagged Cn [1]; [14]): 3.012; Chip Fluorescence (mean) (GST-tagged Cn [1]; [15]): 0.475
TTWLVVFMIPELMKLS [Seqshuffled_9855]			Chip Fluorescence (max) (GST-tagged Cn [1]; [10]): 1.271; Chip Fluorescence (mean) (GST-tagged Cn [1]; [11]): 0.8684
PFLAEQYMVVEEMTVS [Seqshuffled_9732]			Chip Fluorescence (max) (GST-tagged Cn [1]; [12]): 1.48; Chip Fluorescence (mean) (GST-tagged Cn [1]; [13]): -0.4167
PDESTPEITITPAELP [SeqRBMlowT_5714]			Chip Fluorescence (max) (GST-tagged Cn [1]; [12]): 1.719; Chip Fluorescence (mean) (GST-tagged Cn [1]; [13]): -0.09544
NAWKNPGQETHTTKKL [Seqshuffled_9929]			Chip Fluorescence (max) (GST-tagged Cn [1]; [12]): 1.453; Chip Fluorescence (mean) (GST-tagged Cn [1]; [13]): -0.5656
TDHMNPQITISSKEND [SeqRBM_3457]			Chip Fluorescence (max) (GST-tagged Cn [1]; [10]): 1.164; Chip Fluorescence (mean) (GST-tagged Cn [1]; [11]): 0.5231
TFWMNPQYKIKLEEPD [SeqRBMlowT_4687]			Chip Fluorescence (max) (GST-tagged Cn [1]; [12]): 1.8162; Chip Fluorescence (mean) (GST-tagged Cn [1]; [13]): 0.005772
PSSCTPHLYARVHKGQ [SeqRBM_1451]			Chip Fluorescence (max) (GST-tagged Cn [1]; [4]): 0.2872; Chip Fluorescence (mean) (GST-tagged Cn [1]; [5]): -1.296
GDPITVTFSFKQQSIR [Seqshuffled_9986]			Chip Fluorescence (max) (GST-tagged Cn [1]; [8]): 4.236; Chip Fluorescence (mean) (GST-tagged Cn [1]; [9]): -0.3717
TFWTNPQFRLKIPQVD [SeqRBMlowT_93]			Chip Fluorescence (max) (GST-tagged Cn [1]; [14]): 3.328; Chip Fluorescence (mean) (GST-tagged Cn [1]; [15]): 1.497
STSSLPTFSFSSPQST [SeqRBMlowT_3930]			Chip Fluorescence (max) (GST-tagged Cn [1]; [4]): -0.1298; Chip Fluorescence (mean) (GST-tagged Cn [1]; [5]): -1.588
AAGAGVGIVITVTEAE [SeqRBMlowT_180]			Chip Fluorescence (max) (GST-tagged Cn [1]; [14]): 3.317; Chip Fluorescence (mean) (GST-tagged Cn [1]; [15]): 1.923
ATSGTFPQTEGSHKKQ [SeqRBMlowT_5854]			Chip Fluorescence (max) (GST-tagged Cn [1]; [12]): 1.785; Chip Fluorescence (mean) (GST-tagged Cn [1]; [13]): -0.4136
TFWTNPQFRITLEEED [SeqRBMlowT_658]			Chip Fluorescence (max) (GST-tagged Cn [1]; [8]): 4.839; Chip Fluorescence (mean) (GST-tagged Cn [1]; [9]): 1.41
TFWSNPQFRITLEEPD [SeqRBMlowT_9100]			Chip Fluorescence (max) (GST-tagged Cn [1]; [6]): 0.5324; Chip Fluorescence (mean) (GST-tagged Cn [1]; [7]): -0.206
DSLYQEVLGIRSFSLS [SeqRBM_8930]			Chip Fluorescence (max) (GST-tagged Cn [1]; [6]): 0.6781; Chip Fluorescence (mean) (GST-tagged Cn [1]; [7]): 0.06214
TFWSNPQFKIKLEDPD [SeqRBMlowT_7428]			Chip Fluorescence (max) (GST-tagged Cn [1]; [12]): 1.373; Chip Fluorescence (mean) (GST-tagged Cn [1]; [13]): 0.3282
LCWFLDYRVVLPFFAY [Seqshuffled_7970]			Chip Fluorescence (max) (GST-tagged Cn [1]; [8]): 4.66; Chip Fluorescence (mean) (GST-tagged Cn [1]; [9]): 1.641
GSPPTPSRSGKPPKPL [SeqRBM_2495]			Chip Fluorescence (max) (GST-tagged Cn [1]; [14]): 3.396; Chip Fluorescence (mean) (GST-tagged Cn [1]; [15]): 0.6955
GQSISRNIRPNTFSPL [Seqshuffled_9432]			Chip Fluorescence (max) (GST-tagged Cn [1]; [4]): 0.04391; Chip Fluorescence (mean) (GST-tagged Cn [1]; [5]): -1.286
RTPGTFPLTLKGHKKQ [SeqRBMlowT_6382]			Chip Fluorescence (max) (GST-tagged Cn [1]; [12]): 1.729; Chip Fluorescence (mean) (GST-tagged Cn [1]; [13]): 0.4598
STSSLPTFSFSSPLST [SeqRBMlowT_892]			Chip Fluorescence (max) (GST-tagged Cn [1]; [12]): 1.3512; Chip Fluorescence (mean) (GST-tagged Cn [1]; [13]): -0.8669
QKRYGETFPPVKTGSD [Seqshuffled_1489]			Chip Fluorescence (max) (GST-tagged Cn [1]; [10]): 1.242; Chip Fluorescence (mean) (GST-tagged Cn [1]; [11]): -0.2303
ESSTTPGVVVHICEDD [SeqRBM_7485]			Chip Fluorescence (max) (GST-tagged Cn [1]; [8]): 8.839; Chip Fluorescence (mean) (GST-tagged Cn [1]; [9]): 1.544
TFWTNPQFVVSLPEPD [SeqRBMlowT_3270]			Chip Fluorescence (max) (GST-tagged Cn [1]; [6]): 0.9379; Chip Fluorescence (mean) (GST-tagged Cn [1]; [7]): -0.001001
